Measured values reported in US20240156790A1, “COMPOUNDS, COMPOSITIONS, AND METHODS FOR MODULATING FERROPTOSIS AND TREATING EXCITOTOXIC DISORDERS” (THE TRUSTEES OF COLUMBIA UNIVERSITY IN THE CITY OF NEW YORK, priority 2018, published 2024).
Entries after “also recorded” stand apart in the source; their conditions may differ.

Tests used:
[1] = Microsomal stability, dog (Table 1); type: in vitro ADME; conditions: liver microsomes; Dog: Beagle; read-out: Microsomal Stability t1/2
Protocol: (§1) Each compound (1 μM) is incubated with mouse plasma, for 4 hours at 37° C., with shaking at 100 rpm. The concentration of compound in the buffer and plasma chambers is determined using LC-MS/MS. Metabolism of each compound is predicted using Sites of Metabolism (Schrodinger Suite), which combines intrinsic reactivity analysis (Hammett-Taft) with induced fit docking against 2C9, 2D6 and 3A4. This approach identifies 90% of known metabolism sites and has a false positive rate of 17%. The in vitro metabolic stability of each compound in mouse liver microsomes is determined. Pooled mouse liver microsomes are prepared and stored at −80° C. until needed. Compound stability in liver microsomes is measured at 0, 15, 30, 45 and 60 minutes in duplicate, using LC-MS/MS analysis.

[2] = Microsomal stability, human liver microsomes (Table 1); type: in vitro ADME; conditions: Human: Pooled, 50 donors; for half-life: liver microsomes, read-out: Microsomal Stability t1/2 (converted)
[3] = Microsomal stability, rat (Table 1); type: in vitro ADME; conditions: Rat: Sprague Dawley; for half-life: liver microsomes, read-out: Microsomal Stability t1/2 (converted)
[4] = Microsomal stability, mouse liver microsomes (Table 1); type: in vitro ADME, Mouse: CD1; conditions: liver microsomes
Protocol: as §1, with “Compound stability in liver microsomes is measured at 0, 15, 30, 45 and 60 minutes in duplicate, using LC-MS/MS analysis.” left out

HT-1080 cells [5] = experiment: Rescue activity of Fer-1 analogs: inhibition of erastin-, IKE- or RSL3-induced death (Alamar Blue viability); type: cell-based; conditions: Homo sapiens
Protocol: HT-1080 cells are cultured in DMEM containing 10% fetal bovine serum, 1% supplemented non-essential amino acids and 1% pen/strep mixture (Gibco) and maintained in a humidified environment at 37° C. with 5% CO2 in a tissue culture incubator. 1,000 HT-1080 cells are seeded per well in duplicate 384-well plates (Corning) using a BioMek FX liquid handling robot (Beckman Coulter). The next day, the medium is replaced with 36 μL of medium containing 10 μM erastin with 4 μL of medium containing a dilution series (previously prepared) of DMSO, Fer-1 (positive control) or Fer-1 analogs. […] Cells are incubated a further 6 hours and then the Alamar Blue fluorescence intensity recorded using a Victor 3 platereader (PerkinElmer)(ex/em 530/590). All experiments are performed at least twice and the background (no cells)-subtracted Alamar Blue values for each combination are averaged between replicates. The same procedure was repeated by replacing erastin (10 μM) with IKE (3 μM) or RSL3 (0.2 μM).

[6] = test system: HT-1080 fibrosarcoma cells; conditions: cited from earlier work
HT-1080 cells [7] = experiment: Cell viability assays in HT-1080 cells, ferroptosis induced by IKE or RSL3 (Example 8); type: cell-based; conditions: for IC50: Homo sapiens, HT-1080, 48 h
Protocol: Cell culture assays were incubated at 37° C. with 5% CO2. HT-1080 cells were grown in DMEM (Corning) supplemented with 10% FBS (Life Technologies), 1% Penicillin-Streptomycin 10,000 U/mL (Gibco), and 1% MEM Non-Essential Amino Acids Solution 100× (Gibco). For cell viability assays, cells were trypsinized, counted, and seeded into 384-well white polypropylene plates at 1,000 cells/well, unless otherwise specified. After allowing cells to adhere overnight, compounds in DMSO stocks were arrayed in a 16-point dilution series prepared in a mother plate, and treated from a daughter plate, [DMSO]=0.28%. After 24 or 48 h, 50% CellTiter-Glo (Promega) 50% cell culture medium was added to each well and incubated at room temperature with shaking for 15 min. Luminescence was measured using a Victor X5 plate reader (PerkinElmer). All cell viability data were normalized to the DMSO vehicle condition. […] All 384w measurements were performed in triplicate
We first evaluated the efficacy of four pyridine analogs, TH-2-9-1, TH-2-31, TH-2-37-1, and TH-2-37-2, in suppressing ferroptosis induced by IKE and RSL3 in HT-1080 cells. […] We sought to determine whether incorporation of pyridine changed stability in mouse liver microsomes.

HT-1080 cells [8] = experiment: Rescue activity of selected Fer-1 analogs, dose-response in HT-1080 cells (cell titer glo); type: cell-based
Protocol: Selected Fer-1 analogs containing a pyridine moiety (FIG. 4) were tested to examine their efficacy and overall potency in inhibiting ferroptosis. For each of these compounds, dose-response curves were generated in HT-1080 cells looking at the effectiveness of the molecules in inhibiting ferroptosis induced by either 3 μM IKE or 0.2 μM RSL3, Fer-1 was used as a positive control. For each dose-response curve, 1,000 cells/well were seeded in a 384 well plate and allowed to adhere overnight prior to treating with compound from a daughter plate. Cells were treated for 48 hours, unless otherwise noted, prior to viability being analyzed using cell titer glo (40 μL per well). All liquid handling was performed using the BioMek. All samples were prepared in triplicate, unless otherwise noted.

[9] = CD1, mouse, Mouse: CD1, read-out: Microsomal Stability t1/2
[10] = HT-1080, ^b 50% viability, HT-1080 treated with 3 μM IKE
[11] = HT-1080, ^c 50% viability, HT-1080 treated with 0.2 μM RSL3
[12] = HT-1080, ^a 50% viability, HT-1080 cells treated with 10 μM erastin

Question: What does the source list for CC(C)(C)OC(=O)c1cc(N)c(NC23CC4CC(CC(C4)C2)C3)cc1Cl [CFI-A3]?
Answer: half-life [1]: > 2 h; half-life [2]: > 2 h; half-life [3]: 0.5 to 1 h; half-life [4, 9]: 0.27 to 0.277 h; EC50 (HT-1080 cells [5]; [10]): 26 nM; EC50 (HT-1080 cells [5]; [11]): 6 nM

Question: What does the source list for Nc1cc(-c2ncco2)ccc1NC1CCCCC1 [CFI-4051]?
Answer: half-life [1]: > 2 h; half-life [2]: > 2 h; half-life [3]: 0.5 to 1 h; half-life [4, 9]: 0.0533 to 0.055 h; EC50 (HT-1080 cells [5]; [12]): 36 nM; EC50 (HT-1080 cells [5]; [10]): 13 nM; EC50 (HT-1080 cells [5]; [11]): 5 nM

Question: What does the source list for C=C(/C=C\CNC12CC3CC(CC(C3)C1)C2)COC(C)(C)C [CFI-A4]?
Answer: Microsomal Stability t1/2 [2]: > 2 h; Microsomal Stability t1/2 [3]: ~0.333 h; EC50 (HT-1080 cells [5]; [10]): 16 nM; EC50 (HT-1080 cells [5]; [11]): 1 nM

Question: Which results are given for CC(C)(C)OC(=O)c1ccc(NC23CC4CC(CC(C4)C2)C3)c(N=Cc2cncnc2)c1 [SRS16-86]?
Answer: decrease in potency relative to SRS11-92 [6]: > 50 fold; decrease in potency relative to fer-1 [6]: ~4 fold

Question: What does the source list for Cc1noc(-c2ccc(NC34CC5CC(CC(C5)C3)C4)c(NC3CCCCC3)c2)n1 [CFI-4083]?
Answer: half-life [2]: > 2 h; half-life ([4]; CD1 (mouse), mouse, human, in either mouse or human liver microsomes, read-out: T1/2): > 2 h; half-life [4, 9]: > 2 h

Question: Which “Microsomal Stability t1/2” value [2] does the source give for CCCC(CC)Nc1ccc(C(=O)OC(C)(C)C)cc1Nc1ccccc1 (stereo not shown) [CFI-4081] here?
Answer: > 2 h

Question: With COc1cnc(NC2CCCCC2)c(NC2CCCCC2)c1 [TH-2-9-1, N^2,N^3-dicyclohexyl-5-methoxypyridine-2,3-diamine] as the compound, how does the “potency relative to fer-1 at suppressing ferroptosis, in words” value (HT-1080 cells [7]) read?
Answer: slightly less potent than fer-1 in inhibiting IKE-induced death

Question: And the IC50 (HT-1080 cells [7]; ^b 2 μM IKE, 48 hours, 1,000 cells/well)?
Answer: 16.9 nM

Question: And the IC50 (HT-1080 cells [7]; ^c 0.2 μM RSL3, 48 hours, 1,000 cells/well)?
Answer: 2.7 nM

Question: And the half-life [4, 9]?
Answer: 0.128 h

Question: And the “death observed with RSL3” value (HT-1080 cells [8]; 0.2 μM RSL3, inhibitor range 10 μM-0 μM)?
Answer: No death was observed

Question: What about the “potency compared, in words” value (HT-1080 cells [8]; 3 μM IKE, 0.2 μM RSL3, 10 μM erastin) of the same compound?
Answer: an order of magnitude more potent than Fer-1 for all inducers beyond RSL3; also recorded: the most potent analog for RSL3 alone

Question: What about the “rescue against IKE and erastin” value (HT-1080 cells [8]; inhibitor 1 μM-0 μM, 3 μM IKE, 10 μM erastin, 48 hours) of the same compound?
Answer: ~50%

Question: What about the EC50 (HT-1080 cells [5]; [12]) of the same compound?
Answer: 0.1 nM

Question: What about the EC50 (HT-1080 cells [5]; [10]) of the same compound?
Answer: 0.21 nM

Question: What about the EC50 (HT-1080 cells [5]; [11]) of the same compound?
Answer: 0.2 nM

Question: For CCOC(=O)c1ccc(NC2CCCCC2)c(NCc2ccccc2)c1 [SRS11-92], which “potency, in words” value [6] is on record?
Answer: low nanomolar potency
